Active and inactive are the calls of the source. No rule for the calls is given here.
Tested on: CCRIS mutagenicity, Ames/micronucleus/aberration tests
Assay: CCRIS mutagenicity studies
[1] = Test System: AMES SALMONELLA TYPHIMURIUM, Strain/Indicator: TA98, Metabolic Activation: NONE, Method: STANDARD PLATE
[2] = Test System: AMES SALMONELLA TYPHIMURIUM, Strain/Indicator: TA98, Metabolic Activation: RAT, LIVER, S-9, AROCLOR 1254, Method: STANDARD PLATE
[3] = Test System: AMES SALMONELLA TYPHIMURIUM, Strain/Indicator: TA100, Metabolic Activation: NONE, Method: STANDARD PLATE
[4] = Test System: AMES SALMONELLA TYPHIMURIUM, Strain/Indicator: TA100, Metabolic Activation: RAT, LIVER, S-9, AROCLOR 1254, Method: STANDARD PLATE

Measured: mutagenic call

Oc1c(Cl)ccc(Cl)c1Cl
inactive: Test System: AMES SALMONELLA TYPHIMURIUM, Strain/Indicator: TA97, Metabolic Activation: HAMSTER, LIVER, S-9, AROCLOR 1254 (10%), Method: PREINCUBATION inactive; negative | Test System: AMES SALMONELLA TYPHIMURIUM, Strain/Indicator: TA97, Metabolic Activation: HAMSTER, LIVER, S-9, AROCLOR 1254 (30%), Method: PREINCUBATION inactive; negative | Test System: AMES SALMONELLA TYPHIMURIUM, Strain/Indicator: TA97, Metabolic Activation: NONE, Method: PREINCUBATION inactive; negative | Test System: AMES SALMONELLA TYPHIMURIUM, Strain/Indicator: TA97, Metabolic Activation: NONE, Method: STANDARD PLATE inactive; negative | Test System: AMES SALMONELLA TYPHIMURIUM, Strain/Indicator: TA97, Metabolic Activation: RAT, LIVER, S-9, AROCLOR 1254 (10%), Method: PREINCUBATION inactive; negative | Test System: AMES SALMONELLA TYPHIMURIUM, Strain/Indicator: TA97, Metabolic Activation: RAT, LIVER, S-9, AROCLOR 1254 (30%), Method: PREINCUBATION inactive; negative | Test System: AMES SALMONELLA TYPHIMURIUM, Strain/Indicator: TA97, Metabolic Activation: RAT, LIVER, S-9, AROCLOR 1254, Method: STANDARD PLATE inactive; negative | Test System: AMES SALMONELLA TYPHIMURIUM, Strain/Indicator: TA98, Metabolic Activation: HAMSTER, LIVER, S-9, AROCLOR 1254 (10%), Method: PREINCUBATION inactive; negative | Test System: AMES SALMONELLA TYPHIMURIUM, Strain/Indicator: TA98, Metabolic Activation: HAMSTER, LIVER, S-9, AROCLOR 1254 (30%), Method: PREINCUBATION inactive; negative | Test System: AMES SALMONELLA TYPHIMURIUM, Strain/Indicator: TA98, Metabolic Activation: NONE, Method: PREINCUBATION inactive; negative | [1] inactive; negative | Test System: AMES SALMONELLA TYPHIMURIUM, Strain/Indicator: TA98, Metabolic Activation: RAT, LIVER, S-9, AROCLOR 1254 (10%), Method: PREINCUBATION inactive; negative | Test System: AMES SALMONELLA TYPHIMURIUM, Strain/Indicator: TA98, Metabolic Activation: RAT, LIVER, S-9, AROCLOR 1254 (30%), Method: PREINCUBATION inactive; negative | Test System: AMES SALMONELLA TYPHIMURIUM, Strain/Indicator: TA100, Metabolic Activation: HAMSTER, LIVER, S-9, AROCLOR 1254 (10%), Method: PREINCUBATION inactive; negative | Test System: AMES SALMONELLA TYPHIMURIUM, Strain/Indicator: TA100, Metabolic Activation: HAMSTER, LIVER, S-9, AROCLOR 1254 (30%), Method: PREINCUBATION inactive; negative | Test System: AMES SALMONELLA TYPHIMURIUM, Strain/Indicator: TA100, Metabolic Activation: NONE, Method: PREINCUBATION inactive; negative | [3] inactive; negative | Test System: AMES SALMONELLA TYPHIMURIUM, Strain/Indicator: TA100, Metabolic Activation: RAT, LIVER, S-9, AROCLOR 1254 (10%), Method: PREINCUBATION inactive; negative | Test System: AMES SALMONELLA TYPHIMURIUM, Strain/Indicator: TA100, Metabolic Activation: RAT, LIVER, S-9, AROCLOR 1254 (30%), Method: PREINCUBATION inactive; negative | [4] inactive; negative | Test System: AMES SALMONELLA TYPHIMURIUM, Strain/Indicator: TA104, Metabolic Activation: NONE, Method: STANDARD PLATE inactive; negative | Test System: AMES SALMONELLA TYPHIMURIUM, Strain/Indicator: TA104, Metabolic Activation: RAT, LIVER, S-9, AROCLOR 1254, Method: STANDARD PLATE inactive; negative | Test System: AMES SALMONELLA TYPHIMURIUM, Strain/Indicator: TA1535, Metabolic Activation: HAMSTER, LIVER, S-9, AROCLOR 1254 (10%), Method: PREINCUBATION inactive; negative | Test System: AMES SALMONELLA TYPHIMURIUM, Strain/Indicator: TA1535, Metabolic Activation: HAMSTER, LIVER, S-9, AROCLOR 1254 (30%), Method: PREINCUBATION inactive; negative | Test System: AMES SALMONELLA TYPHIMURIUM, Strain/Indicator: TA1535, Metabolic Activation: NONE, Method: PREINCUBATION inactive; negative | Test System: AMES SALMONELLA TYPHIMURIUM, Strain/Indicator: TA1535, Metabolic Activation: RAT, LIVER, S-9, AROCLOR 1254 (10%), Method: PREINCUBATION inactive; negative | Test System: AMES SALMONELLA TYPHIMURIUM, Strain/Indicator: TA1535, Metabolic Activation: RAT, LIVER, S-9, AROCLOR 1254 (30%), Method: PREINCUBATION inactive; negative | Test System: AMES SALMONELLA TYPHIMURIUM, Strain/Indicator: TA1537, Metabolic Activation: HAMSTER, LIVER, S-9, AROCLOR 1254 (30%), Method: PREINCUBATION inactive; negative | Test System: AMES SALMONELLA TYPHIMURIUM, Strain/Indicator: TA1537, Metabolic Activation: NONE, Method: PREINCUBATION inactive; negative | Test System: AMES SALMONELLA TYPHIMURIUM, Strain/Indicator: TA1537, Metabolic Activation: RAT, LIVER, S-9, AROCLOR 1254 (30%), Method: PREINCUBATION inactive; negative
active: End Point: IN VITRO CHROMOSOMAL ABERRATIONS, Test System: CHINESE HAMSTER LUNG CELLS (CHL), Metabolic Activation: RAT, LIVER, S-9, KC-400 active; positive (structural changes) | End Point: IN VITRO CHROMOSOMAL ABERRATIONS, Test System: CHINESE HAMSTER OVARY CELLS (CHO), Metabolic Activation: NONE active; positive (structural changes) | End Point: IN VITRO CHROMOSOMAL ABERRATIONS, Test System: CHINESE HAMSTER OVARY CELLS (CHO), Metabolic Activation: RAT, LIVER, S-9, AROCLOR 1254 active; positive (structural changes) | [2] active; positive

O=C(O)CCCC[C@@H]1SC[C@@H]2NC(=O)N[C@@H]21
inactive: [1] inactive; negative | [2] inactive; negative | [3] inactive; negative | [4] inactive; negative | Test System: AMES SALMONELLA TYPHIMURIUM, Strain/Indicator: TA1535, Metabolic Activation: NONE, Method: STANDARD PLATE inactive; negative | Test System: AMES SALMONELLA TYPHIMURIUM, Strain/Indicator: TA1535, Metabolic Activation: RAT, LIVER, S-9, AROCLOR 1254, Method: STANDARD PLATE inactive; negative | Test System: AMES SALMONELLA TYPHIMURIUM, Strain/Indicator: TA1537, Metabolic Activation: NONE, Method: STANDARD PLATE inactive; negative | Test System: AMES SALMONELLA TYPHIMURIUM, Strain/Indicator: TA1537, Metabolic Activation: RAT, LIVER, S-9, AROCLOR 1254, Method: STANDARD PLATE inactive; negative | Test System: AMES SALMONELLA TYPHIMURIUM, Strain/Indicator: TA1538, Metabolic Activation: NONE, Method: STANDARD PLATE inactive; negative | Test System: AMES SALMONELLA TYPHIMURIUM, Strain/Indicator: TA1538, Metabolic Activation: RAT, LIVER, S-9, AROCLOR 1254, Method: STANDARD PLATE inactive; negative | Test System: E. COLI, Strain/Indicator: WP2, Metabolic Activation: NONE, Method: STANDARD PLATE inactive; negative | Test System: E. COLI, Strain/Indicator: WP2, Metabolic Activation: RAT, LIVER, S-9, AROCLOR 1254, Method: STANDARD PLATE inactive; negative

O=C1OCC(CBr)=C1Br
active: [3] active; positive

Source: PubChem BioAssay AID1259407 (Chemical Carcinogenesis Research Information System (CCRIS), 2018)
